Assay results reported in PubChem BioAssay (NCI).
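Method: 48-hour compound exposure of cells in 96-well plates, five concentrations, linear interpolation of endpoints. TGI: total growth inhibition.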

How the values were obtained:
Assay in all cases: DTP human tumour cell line panel, 48 h
LOX IMVI melanoma = tested on: LOX IMVI melanoma
T-47D breast = tested on: T-47D breast
SN12C renal = tested on: SN12C renal
MDA-N = tested on: MDA-N
HL-60(TB) leukemia = tested on: HL-60(TB) leukemia
RXF 393 renal = tested on: RXF 393 renal
SK-OV-3 ovarian = tested on: SK-OV-3 ovarian
MALME-3M melanoma = tested on: MALME-3M melanoma
DU-145 prostate = tested on: DU-145 prostate
SF-295 CNS = tested on: SF-295 CNS
K-562 leukemia = tested on: K-562 leukemia
OVCAR-4 ovarian = tested on: OVCAR-4 ovarian
ACHN renal = tested on: ACHN renal
SNB-75 CNS = tested on: SNB-75 CNS
SF-539 CNS = tested on: SF-539 CNS
PC-3 prostate = tested on: PC-3 prostate
SF-268 CNS = tested on: SF-268 CNS
BT-549 breast = tested on: BT-549 breast
HOP-92 NSCLC = tested on: HOP-92 NSCLC
HCC-2998 colon = tested on: HCC-2998 colon
TK-10 renal = tested on: TK-10 renal
HCT-15 colon = tested on: HCT-15 colon
OVCAR-5 ovarian = tested on: OVCAR-5 ovarian
UO-31 renal = tested on: UO-31 renal
CCRF-CEM leukemia = tested on: CCRF-CEM leukemia
NCI-H460 lung = tested on: NCI-H460 lung
SK-MEL-28 melanoma = tested on: SK-MEL-28 melanoma
HCT-116 colon = tested on: HCT-116 colon
COLO 205 colon = tested on: COLO 205 colon
KM12 colon = tested on: KM12 colon
U251 CNS = tested on: U251 CNS
OVCAR-3 ovarian = tested on: OVCAR-3 ovarian
OVCAR-8 ovarian = tested on: OVCAR-8 ovarian
SK-MEL-2 melanoma = tested on: SK-MEL-2 melanoma
SNB-19 CNS = tested on: SNB-19 CNS
EKVX NSCLC = tested on: EKVX NSCLC
SK-MEL-5 melanoma = tested on: SK-MEL-5 melanoma
MOLT-4 leukemia = tested on: MOLT-4 leukemia
SW-620 colon = tested on: SW-620 colon
MCF7 breast = tested on: MCF7 breast
NCI/ADR-RES ovarian = tested on: NCI/ADR-RES ovarian
IGROV1 ovarian = tested on: IGROV1 ovarian
M14 melanoma = tested on: M14 melanoma
NCI-H23 lung = tested on: NCI-H23 lung
RPMI-8226 leukemia = tested on: RPMI-8226 leukemia
UACC-257 melanoma = tested on: UACC-257 melanoma
NCI-H522 lung = tested on: NCI-H522 lung
NCI-H226 lung = tested on: NCI-H226 lung
SR leukemia = tested on: SR leukemia
HOP-62 NSCLC = tested on: HOP-62 NSCLC
CAKI-1 renal = tested on: CAKI-1 renal
786-0 renal = tested on: 786-0 renal
A549 NSCLC = tested on: A549 NSCLC
A498 renal = tested on: A498 renal
HT29 colon = tested on: HT29 colon
MDA-MB-435 = tested on: MDA-MB-435
UACC-62 melanoma = tested on: UACC-62 melanoma
MDA-MB-231 breast = tested on: MDA-MB-231 breast

Cc1cc(S(=O)(=O)Nc2nc(N)nc(N(C)C)n2)c(S)cc1Cl
TGI (LOX IMVI melanoma): > 10 µM
TGI (T-47D breast): > 10 µM
TGI (SN12C renal): > 10 µM
TGI (MDA-N): > 10 µM
TGI (HL-60(TB) leukemia): > 10 µM
TGI (RXF 393 renal): > 10 µM
TGI (SK-OV-3 ovarian): > 10 µM
TGI (MALME-3M melanoma): > 10 µM
TGI (DU-145 prostate): > 10 µM
TGI (SF-295 CNS): > 10 µM
TGI (K-562 leukemia): > 10 µM
TGI (OVCAR-4 ovarian): > 10 µM
TGI (ACHN renal): > 10 µM
TGI (SNB-75 CNS): > 10 µM
TGI (SF-539 CNS): > 10 µM
TGI (PC-3 prostate): > 10 µM
TGI (SF-268 CNS): > 10 µM
TGI (BT-549 breast): > 10 µM
TGI (HOP-92 NSCLC): > 10 µM
TGI (HCC-2998 colon): > 10 µM
TGI (TK-10 renal): > 10 µM
TGI (HCT-15 colon): > 10 µM
TGI (OVCAR-5 ovarian): > 10 µM
TGI (UO-31 renal): > 10 µM
TGI (CCRF-CEM leukemia): > 10 µM
TGI (NCI-H460 lung): > 10 µM
TGI (SK-MEL-28 melanoma): > 10 µM
TGI (HCT-116 colon): > 10 µM
TGI (COLO 205 colon): > 10 µM
TGI (KM12 colon): > 10 µM
TGI (U251 CNS): > 10 µM
TGI (OVCAR-3 ovarian): > 10 µM
TGI (OVCAR-8 ovarian): > 10 µM
TGI (SK-MEL-2 melanoma): > 10 µM
TGI (SNB-19 CNS): > 10 µM
TGI (EKVX NSCLC): > 10 µM
TGI (SK-MEL-5 melanoma): > 10 µM
TGI (MOLT-4 leukemia): > 10 µM
TGI (SW-620 colon): > 10 µM
TGI (MCF7 breast): > 10 µM
TGI (NCI/ADR-RES ovarian): > 10 µM
TGI (IGROV1 ovarian): > 10 µM
TGI (M14 melanoma): > 10 µM
TGI (NCI-H23 lung): > 10 µM
TGI (RPMI-8226 leukemia): > 10 µM
TGI (UACC-257 melanoma): > 10 µM
TGI (NCI-H522 lung): > 10 µM
TGI (NCI-H226 lung): > 10 µM
TGI (SR leukemia): > 10 µM
TGI (HOP-62 NSCLC): > 10 µM
TGI (CAKI-1 renal): > 10 µM
TGI (786-0 renal): > 10 µM
TGI (A549 NSCLC): > 10 µM
TGI (A498 renal): > 10 µM
TGI (HT29 colon): > 10 µM

Cc1ccc(C(=O)Nc2ccc(S(=O)(=O)O)c3cc(S(=O)(=O)O)cc(S(=O)(=O)O)c23)cc1NC(=O)Nc1cc(C(=O)Nc2ccc(S(=O)(=O)O)c3cc(S(=O)(=O)O)cc(S(=O)(=O)O)c23)ccc1C
TGI (LOX IMVI melanoma): > 87.5 µM
TGI (T-47D breast): > 87.5 µM
TGI (SN12C renal): > 87.5 µM
TGI (MDA-MB-435): > 87.5 µM
TGI (MDA-N): > 87.5 µM
TGI (HL-60(TB) leukemia): > 87.5 µM
TGI (MALME-3M melanoma): > 87.5 µM
TGI (DU-145 prostate): > 87.5 µM
TGI (K-562 leukemia): > 87.5 µM
TGI (OVCAR-4 ovarian): > 87.5 µM
TGI (ACHN renal): > 87.5 µM
TGI (SNB-75 CNS): > 87.5 µM
TGI (PC-3 prostate): > 87.5 µM
TGI (SF-268 CNS): > 87.5 µM
TGI (BT-549 breast): > 87.5 µM
TGI (HCC-2998 colon): > 87.5 µM
TGI (TK-10 renal): > 87.5 µM
TGI (HCT-15 colon): > 87.5 µM
TGI (UACC-62 melanoma): > 87.5 µM
TGI (OVCAR-5 ovarian): > 87.5 µM
TGI (UO-31 renal): > 87.5 µM
TGI (CCRF-CEM leukemia): > 87.5 µM
TGI (NCI-H460 lung): > 87.5 µM
TGI (SK-MEL-28 melanoma): > 87.5 µM
TGI (HCT-116 colon): > 87.5 µM
TGI (U251 CNS): > 87.5 µM
TGI (OVCAR-3 ovarian): > 87.5 µM
TGI (OVCAR-8 ovarian): > 87.5 µM
TGI (SK-MEL-2 melanoma): > 87.5 µM
TGI (MDA-MB-231 breast): > 87.5 µM
TGI (SNB-19 CNS): > 87.5 µM
TGI (SK-MEL-5 melanoma): > 87.5 µM
TGI (MOLT-4 leukemia): > 87.5 µM
TGI (SW-620 colon): > 87.5 µM
TGI (MCF7 breast): > 87.5 µM
TGI (IGROV1 ovarian): > 87.5 µM
TGI (M14 melanoma): > 87.5 µM
TGI (NCI-H23 lung): > 87.5 µM
TGI (RPMI-8226 leukemia): > 87.5 µM
TGI (UACC-257 melanoma): > 87.5 µM
TGI (NCI-H522 lung): > 87.5 µM
TGI (NCI-H226 lung): > 87.5 µM
TGI (SR leukemia): > 87.5 µM
TGI (HOP-62 NSCLC): > 87.5 µM
TGI (CAKI-1 renal): > 87.5 µM
TGI (786-0 renal): > 87.5 µM
TGI (A549 NSCLC): > 87.5 µM
TGI (A498 renal): > 87.5 µM
TGI (HT29 colon): > 87.5 µM

COc1nc(-c2cn(S(=O)(=O)c3ccc(C)cc3)c3ccc(Br)cc23)cc(C(F)(F)F)c1C#N
TGI (LOX IMVI melanoma): > 100 µM
TGI (T-47D breast): 42.9 µM
TGI (SN12C renal): > 100 µM
TGI (MDA-MB-435): > 100 µM
TGI (MDA-N): > 100 µM
TGI (HL-60(TB) leukemia): > 100 µM
TGI (RXF 393 renal): 58.8 µM
TGI (SK-OV-3 ovarian): 59.5 µM
TGI (MALME-3M melanoma): > 100 µM
TGI (DU-145 prostate): 31.3 µM
TGI (SF-295 CNS): > 100 µM
TGI (K-562 leukemia): > 100 µM
TGI (OVCAR-4 ovarian): > 100 µM
TGI (ACHN renal): > 100 µM
TGI (SNB-75 CNS): 49.4 µM
TGI (SF-539 CNS): > 100 µM
TGI (PC-3 prostate): > 100 µM
TGI (SF-268 CNS): > 100 µM
TGI (BT-549 breast): 74.2 µM
TGI (HOP-92 NSCLC): > 100 µM
TGI (HCC-2998 colon): > 100 µM
TGI (HCT-15 colon): > 100 µM
TGI (UACC-62 melanoma): > 100 µM
TGI (OVCAR-5 ovarian): > 100 µM
TGI (UO-31 renal): > 100 µM
TGI (CCRF-CEM leukemia): > 100 µM
TGI (NCI-H460 lung): > 100 µM
TGI (SK-MEL-28 melanoma): > 100 µM
TGI (COLO 205 colon): > 100 µM
TGI (KM12 colon): > 100 µM
TGI (U251 CNS): 35.2 µM
TGI (OVCAR-3 ovarian): 35.8 µM
TGI (OVCAR-8 ovarian): 64.9 µM
TGI (SK-MEL-2 melanoma): > 100 µM
TGI (SNB-19 CNS): 62.4 µM
TGI (EKVX NSCLC): > 100 µM
TGI (SK-MEL-5 melanoma): > 100 µM
TGI (MOLT-4 leukemia): > 100 µM
TGI (SW-620 colon): > 100 µM
TGI (MCF7 breast): > 100 µM
TGI (NCI/ADR-RES ovarian): > 100 µM
TGI (IGROV1 ovarian): > 100 µM
TGI (NCI-H23 lung): 44.9 µM
TGI (RPMI-8226 leukemia): 41.8 µM
TGI (UACC-257 melanoma): > 100 µM
TGI (NCI-H522 lung): > 100 µM
TGI (NCI-H226 lung): 53.9 µM
TGI (CAKI-1 renal): > 100 µM
TGI (A549 NSCLC): > 100 µM
TGI (A498 renal): > 100 µM
TGI (HT29 colon): > 100 µM
